Article PMC4604124, “In Vitro Characterization of the Pharmacological Properties of the Anti-Cancer Chelator, Bp4eT, and Its Phase I Metabolites” (PLoS ONE, 2015)
Values joined by “and” are separate entries in the source; they are usually repeats but may differ in a detail not shown here. Equal entries are not always repeated. Where two headings read alike, the source gives them in different places.

What was measured:
[1] = test system: MCF-7 human breast adenocarcinoma cells; experiment: MTT cytotoxicity assay, MCF-7 cells; type: cell-based; conditions: for IC50: MTT, read-out: IC50
Protocol: (§1) For cytotoxicity experiments, cancer cells were seeded at a density of 5,000 (MCF-7), 10,000 (HL-60) or 2,000 cells/well (HCT116 and A549) in 96-well plates (TPP) for 24 h/37°C prior to the addition of examined agents. The non-cancerous cells, 3T3 and H9c2 cells, were cultured for 24 h/37°C in 96-well plates at a density of 10,000 cells/well, the medium was then changed to serum- and pyruvate-free DMEM (Sigma-Aldrich) and incubated with the cells for another 24 h/37°C. The cytotoxic effects of Bp4eT and its metabolites were studied at different concentrations after a 72 h/37°C incubation. In order to aid the dissolution of the lipophilic ligands, 0.1% dimethyl sulfoxide (v/v) (DMSO; Sigma-Aldrich) was present in the culture medium of all groups. At this concentration, DMSO had no effect on cellular proliferation or viability.
(§2) The viability of cells were determined using an MTT assay (Sigma-Aldrich) according to previously established methods. The optical density of soluble MTT was measured at λ = 570 nm, subtracting the λ = 690 nm background using a Tecan Infinite 200M plate reader (Tecan Group, Männedorf, Switzerland). The viability or proliferation of experimental groups was expressed as a percentage of the untreated controls (100%).
(§3) SigmaStat for Windows 3.5 (Systat Software, San Jose, CA, USA) statistical software package was utilized to analyze results. The data are expressed as the mean ± SD of a given number of experiments. Statistical significance was determined using a one-way ANOVA with a Bonferroni post-hoc test or Student’s t-test. The results were considered to be statistically significant when p < 0.05. The IC50 values were calculated using CalcuSyn 2.0 software (Biosoft, Cambridge, UK). Cell cycle analysis was evaluated using MultiCycle AV Software (Phoenix Flow Systems, San Diego, CA, USA).

[2] = test system: A549 human lung adenocarcinoma cells; experiment: MTT cytotoxicity assay, A549 cells; type: cell-based; conditions: for IC50: MTT
Protocol: as §1, §2, §3

MCF-7 cells = experiment: Cellular 59Fe uptake from 59Fe2-transferrin; type: cell-based, human; parameters: key to Uptake 59Fe, Ave / Uptake 59Fe: % of internalized 59Fe in untreated control cells; conditions: Control Ave = 100
From the text: Human transferrin (Sigma) was labeled with ^56Fe or ^59Fe (PerkinElmer, Massachusetts, USA) to produce ^56Fe2-transferrin or ^59Fe2-transferrin (^59Fe2-Tf), respectively, with a final specific activity of 500 pCi/pmol Fe, as previously described. Unbound ^59Fe was removed by exhaustive vacuum dialysis against a large excess of 0.15 M NaCl buffered to pH 7.4 with 1.4% NaHCO3 by standard methods.
The ability of the chelators to prevent cellular ^59Fe uptake from ^59Fe2-transferrin was examined using standard techniques. In brief, confluent MCF-7 cells in 6-well plates were incubated with 0.75 μM ^59Fe2-Tf for 3 h/37°C in the presence of Bp4eT or its metabolites (25 μM). The cells were then washed four times with ice-cold PBS and the level of internalized ^59Fe was determined by incubating the cell monolayer for 30 min/4°C with the general protease, Pronase (1 mg/mL; Sigma-Aldrich). The cells were then removed from the monolayer with a plastic spatula on ice and centrifuged for 1 min/12,000 x g/4°C. The supernatant represents membrane-bound, Pronase-sensitive ^59Fe that was released by the protease, while the Pronase-insensitive fraction represents internalized ^59Fe. The amount of internalized ^59Fe was expressed as a percentage of ^59Fe internalized by control (untreated) cells.

## CCNC(=O)NN=C(c1ccccc1)c1ccccn1 [E-Bp4eS, 2-benzoylpyridine 4-ethylsemicarbazone]
[1]; 3T3/MCF-7
  Therapeutic index, IC50 non-cancerous cells / IC50 neoplastic cells: >4.8
[1]; H9c2/MCF-7
  Therapeutic index, IC50 non-cancerous cells / IC50 neoplastic cells: 4.2
[1]; Homo sapiens, MCF7, 72 h, MCF-7, 72 h/37°C, mean ± SD, n ≥ 4
  IC50: 208 ± 43.9 µM
[1]; Homo sapiens, MCF7, MCF-7, 5 000 b/j, průměr (mean)
  IC50: 209 µM
[1]; Homo sapiens, MCF7, MCF-7, 5 000 b/j, single experiment (by date)
  IC50: 194 µM
[1]; MCF-7, 5 000 b/j, single experiment (by date)
  IC50: 169 µM and 199 µM and 271 µM
[1]; MCF-7, 5 000 b/j, koncentrace 1 μM, průměr (mean)
  MTT, value relative to 0 μM = 100: 97.81
[1]; MCF-7, 5 000 b/j, koncentrace 1 μM, single experiment (by date)
  MTT, value relative to 0 μM = 100: 92.729 and 97.0185 and 91.1778 and 97.3834 and 110.755
[1]; MCF-7, 5 000 b/j, koncentrace 3 μM, průměr (mean)
  MTT, value relative to 0 μM = 100: 98.68
[1]; MCF-7, 5 000 b/j, koncentrace 3 μM, single experiment (by date)
  MTT, value relative to 0 μM = 100: 98.4078 and 88.0788 and 100.293 and 107.936
[1]; MCF-7, 5 000 b/j, koncentrace 10 μM, průměr (mean)
  MTT, value relative to 0 μM = 100: 97.39
[1]; MCF-7, 5 000 b/j, koncentrace 10 μM, single experiment (by date)
  MTT, value relative to 0 μM = 100: 92.0003 and 97.1637 and 90.3424 and 98.5326 and 108.927
[1]; MCF-7, 5 000 b/j, koncentrace 30 μM, průměr (mean)
  MTT, value relative to 0 μM = 100: 96.90
[1]; MCF-7, 5 000 b/j, koncentrace 30 μM, single experiment (by date)
  MTT, value relative to 0 μM = 100: 97.756 and 80.695 and 97.8856 and 111.258
[1]; MCF-7, 5 000 b/j, koncentrace 100 μM, průměr (mean)
  MTT, value relative to 0 μM = 100: 90.08
[1]; MCF-7, 5 000 b/j, koncentrace 100 μM, single experiment (by date)
  MTT, value relative to 0 μM = 100: 88.6813 and 85.2546 and 75.1399 and 92.8747 and 108.447
[1]; MCF-7, 5 000 b/j, koncentrace 300 μM, průměr (mean)
  MTT, value relative to 0 μM = 100: 23.35
[1]; MCF-7, 5 000 b/j, koncentrace 300 μM, single experiment (by date)
  MTT, value relative to 0 μM = 100: 24.0916 and 23.1141 and 17.816 and 28.3884
[1]; MCF-7, 5 000 b/j, koncentrace 1000 μM, průměr (mean)
  MTT, value relative to 0 μM = 100: 23.56
[1]; MCF-7, 5 000 b/j, koncentrace 1000 μM, single experiment (by date)
  MTT, value relative to 0 μM = 100: 23.4887 and 24.7991 and 25.8548 and 20.0906
[2]; 3T3/A549
  Therapeutic index, IC50 non-cancerous cells / IC50 neoplastic cells: >4.0
[2]; A549, 72 h/37°C, mean ± SD, n ≥ 4
  IC50: 248 ± 28.4 µM
[2]; A549, 2 000 b/j, 1 μM, průměr (mean), sheet E-Bp4eS
  MTT, relative to control (0 = 100): 93.23
[2]; A549, 2 000 b/j, 1 μM, single experiment (date), sheet E-Bp4eS
  MTT, relative to control (0 = 100): 97.4794 and 93.8067 and 89.4519 and 90.2593 and 95.1529
[2]; A549, 2 000 b/j, 3 μM, průměr (mean), sheet E-Bp4eS
  MTT, relative to control (0 = 100): 94.11
[2]; A549, 2 000 b/j, 3 μM, single experiment (date), sheet E-Bp4eS
  MTT, relative to control (0 = 100): 94.6678 and 89.857 and 93.9888 and 97.9391
[2]; A549, 2 000 b/j, 10 μM, průměr (mean), sheet E-Bp4eS
  MTT, relative to control (0 = 100): 92.21
[2]; A549, 2 000 b/j, 10 μM, single experiment (date), sheet E-Bp4eS
  MTT, relative to control (0 = 100): 87.4036 and 92.1017 and 93.2476 and 93.9742 and 94.3384
[2]; A549, 2 000 b/j, 30 μM, průměr (mean), sheet E-Bp4eS
  MTT, relative to control (0 = 100): 90.64
[2]; A549, 2 000 b/j, 30 μM, single experiment (date), sheet E-Bp4eS
  MTT, relative to control (0 = 100): 90.1965 and 95.4707 and 85.9691 and 88.5685 and 92.9924
[2]; A549, 2 000 b/j, 100 μM, průměr (mean), sheet E-Bp4eS
  MTT, relative to control (0 = 100): 73.00
[2]; A549, 2 000 b/j, 100 μM, single experiment (date), sheet E-Bp4eS
  MTT, relative to control (0 = 100): 74.3256 and 77.7533 and 70.4536 and 74.7606 and 67.6889
[2]; A549, 2 000 b/j, 300 μM, průměr (mean), sheet E-Bp4eS
  MTT, relative to control (0 = 100): 38.58
[2]; A549, 2 000 b/j, 300 μM, single experiment (date), sheet E-Bp4eS
  MTT, relative to control (0 = 100): 29.8381 and 26.5697 and 49.6192 and 42.8896 and 44.0078
[2]; A549, 2 000 b/j, 1000 μM, průměr (mean), sheet E-Bp4eS
  MTT, relative to control (0 = 100): 20.68
[2]; A549, 2 000 b/j, 1000 μM, single experiment (date), sheet E-Bp4eS
  MTT, relative to control (0 = 100): 19.2379 and 16.653 and 18.6303 and 21.7843 and 27.0728
[2]; A549, 2 000 b/j, single experiment (date), sheet E-Bp4eS
  IC50: 234 µM and 239 µM and 259 µM and 291 µM
[2]; H9c2/A549
  Therapeutic index, IC50 non-cancerous cells / IC50 neoplastic cells: 3.6
[2]; Homo sapiens, A549, A549, 2 000 b/j, single experiment (date), sheet E-Bp4eS
  IC50: 217 µM
MCF-7 cells; average of all replicates
  Uptake 59Fe, Ave: 105.146
MCF-7 cells; single replicate (three per date)
  Uptake 59Fe: 102.106 and 110.477 and 102.867 and 98.5761 and 110.59 and 101.139 and 107.081 and 112.704 and 100.772
